Columns and labels:
RS virus [1] = assay: RS virus cytopathology / syncytium formation in Hep-2 cells (Table 3); details: Hep-2, added 2 hour post infection
trypsin-like enzymes = details: relative to benzamidine; cited from earlier work
A549 = assay: Toxicity on A549 cells; details: A549 (human lung); data not shown
BHK-21 = assay: Toxicity on BHK-21 cells; details: BHK-21 (hamster kidney); data not shown
RS virus [2] = test system: RS virus
cell growth = details: cited from earlier work
CV-1 = assay: Toxicity on CV-1 cells; details: CV-1 (monkey kidney); data not shown

For `N=C(N)c1ccc(OCCCCCOc2ccc(C(=N)N)cc2)cc1` [Compound 2, Pentamidine], which “Effect on RS virus cytopathology (syncytia)” value (RS virus [1]; 0.1 μM) is on record?
Its value is “S”.

And the “Effect on RS virus cytopathology (syncytia)” value (RS virus [1]; 1.0 μM)?
The value was “S”.

What about the “Effectiveness against trypsin-like enzymes versus benzamidine” value (trypsin-like enzymes) of the same molecule?
Its value is “generally an order of magnitude more effective than benzamidine”.

And the “Pattern of toxicity compared with Hep-2 cells” value (A549)?
Its value is “identical pattern of toxicity”.

And the “Pattern of toxicity compared with Hep-2 cells” value (BHK-21)?
The value was “identical pattern of toxicity”.

And the “Single cycle yield of RS virus (RS virus titers)” value (RS virus [2])?
The value was 6.3 × 10^4 TCID50/ml.

What about the “Concentration reducing cell growth rates” value (cell growth) of the same molecule?
The value was 5 to 40 µM.

And the “Pattern of toxicity compared with Hep-2 cells” value (CV-1)?
The value was “identical pattern of toxicity”.
